Source: patent US9198894B2, “Uses of 15-benzylidene-14-deoxy-11,12-didehydroandrographolide derivatives in the preparation of antineoplastic drugs” (Zhengzhou University, priority 2010, dated 2015)
Marks after values point to notes of the source that are not given here.

Columns and labels:
S180 murine sarcoma = experiment: Growth, invasion and metastasis of S180 sarcoma in tumor-bearing mice; format: in vivo, mouse; details: for Average invasion and metastasis grade: S180, grades 0-4; for Mouse Number Grade 0 / Mouse Number Grade 1 / Mouse Number Grade 2 / Mouse Number Grade 3 / Mouse Number Grade 4: S180 invasion; for Mouse Number Grade 0: Grade 0: no invasion; for Mouse Number Grade 1: Grade 1: invasion to right forelimb; for Mouse Number Grade 2: Grade 2: right forelimb and the left side of body; for Mouse Number Grade 3: Grade 3: also the ribs and muscles in chest; for Mouse Number Grade 4: Grade 4: invasion into chest or abdominal cavity; for In vivo antitumor effect on S180 compared with parent compound (in words) / Inhibitory effect on invasion and metastasis of S180 tumor tissues (in words): ig, tested doses
Description: (§1) 1) Animals: Be the same with that of EXAMPLE 4.
2) Cells: The S180 murine sarcoma cells were obtained from Henan Academy of Medical and Pharmaceutical Sciences (Zhengzhou, China).
4) Method: Mice were randomly divided into 10 groups (n=12). The S180 cells after in vivo passage for 7 d were diluted with physiological saline to adjust to a concentration of 1×10^7/mL. The inoculation of tumor cells was conducted in two batches, those of tumor control group I and groups treated with compounds 1 or 3 were in batch 1, those of tumor control group II, Cyc group and the compound 2 groups were in batch 2. The mice were injected with S180 cells (0.2 ml/mouse) into the armpit of right forelimb subcutaneously, and 24 h later each group of mice was administrated intragastrically (ig; 0.2 ml/10 g) once a day continuously for 9 d with vehicle (tumor control group), Cyc (standard control), or compounds at the tested doses. On day 10, kill the mice, observe and record the degree of invasion and metastasis of tumor tissues, then the tumor tissues were segregated and weighed. The inhibition ratio (IR) of tumor growth was calculated by the following formula: IR (%)=[(Wc−Wt)/Wc]×100%, where Wc is the average tumor weight of the control group, and Wt is that of the treatment group. Data were expressed as mean±SD and statistical analysis was performed by SPSS Statistics 17.0 using a one-way analysis of variance (ANOVA) followed by unpaired t-test. A value of P<0.05 was considered statistically significant.

mice = experiment: Acute oral toxicity test, maximum limit method; format: in vivo; details: single dose 5.00 g/kg intragastric, 14 d observation; for Deaths: 10 animals
Description: as §1
3) Method: 20 mice weighing 20±2 g, half male and half female, were divided into 2 groups (n=10) randomly. Animals were administrated with compound 2 or compound 3 at a dose of 5.00 g/kg by intragastric administration after 12 h of fasting (drinking freely). Weigh the mice, observe and record the performance of animals once a day continuously for 14 d.

Murine hepatoma H22 = experiment: Anti-tumor and anti-angiogenesis effects on H22 tumor-bearing mice; format: in vivo, mouse; details: for IR (%) of tumor growth / Carmine contents / VI (vascular index, mg carmine red per g tumor tissue): H22 mice; for Carmine contents / VI (vascular index, mg carmine red per g tumor tissue): mean ± s; for Inhibition against angiogenesis in H22 tumor (in words) / Inhibition against the growth of mouse hepatoma H22 (in words): ig, tested doses 0.65-1.35 mmol/kg
From the text: 1) Animals: Kunming mice of clean grade, half male and half female, body weight 20±2 g, were purchased from the experimental animal center of Henan Province, China. Qualified Certificate number: SCXK (Yu) 2005-0001.
2) Cells: Murine hepatoma H22 cells were presently obtained from Henan Academy of Medical and Pharmaceutical Sciences (Zhengzhou, China).
Cyclophosphamide (Cyc) was produced by Tianjin Jingshi Pharmaceutical Co., Ltd., China (approval number of medicine: H12021006). Gelatin and carmine red were supplied by Sigma Chemical (St. Louis, Mo., U.S.A). All other chemicals and reagents were of the highest commercial grade available. All drugs were prepared with normal saline emulsified with Tween-80 (0.1% v/v) and dispersed in carboxymethylcellulose (0.5% v/v). 10% (W/V) carmine solution was prepared with salt solution containing 5% (W/V) gelatin which should be used immediately after preparation. The rest of medicines and reagents and the methods for preparation were the same with that of EXAMPLE 1.
4) Method: The H22 cells after in vivo passage for 7 d were diluted with physiological saline to adjust to a concentration of 1×10^7/mL, injected to the armpit of right forelimb of mice subcutaneously (0.2 ml/mouse), then mice were divided into 10 groups (n=12; 6 male and 6 female per group) randomly. 24 h later each group of mice was administrated intragastrically (ig; 0.2 ml/10 g) once a day continuously for 7 d with vehicle (tumor control group and control group), Cyc (standard control), or compounds at the tested doses. After the last drug administration and a following fasting of 8 h, each mouse was anesthetized with 1% pentobarbital in normal saline solution (80 mg/kg; ip). Mice of control group were injected with 5% gelatin in normal saline solution (40) via the tail vein (1 ml/mouse); whereas mice of other groups were injected replaced by 10% carmine red and 5% gelatin in normal saline solution (40). Mice were killed, then freezed in a refrigerator at −20 for 2 h to solidify. Tumors were segregated, weighed and homogenized with 3 M NaOH solution (10 ml/g tumor). The homogenate supernatant was prepared by being centrifuged for 20 min at 14000 rpm, and the absorbance at 490 nm was assayed using a PowerWaveX Microplate Scanning Spectrophotometer (Bio-tek Instruments, Inc). The carmine red content was calculated based on the standard curve. The vascular index (VI) expressed as milligram of carmine red per gram of tumor tissue. The inhibition ratio (IR) of tumor growth was calculated using the formula: IR (%)=[(Wc−Wt)/Wc]×100%, where Wc is the average tumor weight of the control group, and Wt is that of the drug treatment group. Data were expressed as mean±SD and statistical analysis was performed by SPSS Statistics 17.0 using a one-way analysis of variance (ANOVA) followed by unpaired t-test. A value of P<0.05 was considered statistically significant.

[1] = 1.10 mmol/kg (1.10 mmol/g [sic])

With C=C1CCC2C(C)(CO)C(O)CCC2(C)C1C=CC1=CC(=Cc2ccc(Cl)cc2)OC1=O (centres unmarked) [Compound 2, 15-p-chlorobenzylidene-14-deoxy-11,12-didehydro-andrographolide] the “IR (%) of S180 sarcoma growth” value (S180 murine sarcoma; 0.60 mmol/kg ig once a day 9 d) was 30.12 ± 8.00 %, the “IR (%) of S180 sarcoma growth” value (S180 murine sarcoma; 0.85 mmol/kg ig once a day 9 d) was 53.38 ± 6.83**^ΔΔ % and the “IR (%) of S180 sarcoma growth” value (S180 murine sarcoma; 1.10 mmol/kg ig once a day 9 d) was 45.16 ± 5.58**^ΔΔ %. The “Average invasion and metastasis grade” value (S180 murine sarcoma; 0.60 mmol/kg) was 2.00, the “Average invasion and metastasis grade” value (S180 murine sarcoma; 0.85 mmol/kg) was 0.00 and the “Average invasion and metastasis grade” value (S180 murine sarcoma; [1]) was 0.00. For the same molecule, the “Mouse Number Grade 0” value (S180 murine sarcoma; 0.60 mmol/kg) was 0, the “Mouse Number Grade 0” value (S180 murine sarcoma; 0.85 mmol/kg) was 12 and the “Mouse Number Grade 0” value (S180 murine sarcoma; [1]) was 12. For the same molecule, the “Mouse Number Grade 1” value (S180 murine sarcoma; 0.60 mmol/kg) was 0, the “Mouse Number Grade 1” value (S180 murine sarcoma; 0.85 mmol/kg) was 0 and the “Mouse Number Grade 1” value (S180 murine sarcoma; [1]) was 0. For the same molecule, the “Mouse Number Grade 2” value (S180 murine sarcoma; 0.60 mmol/kg) was 12, the “Mouse Number Grade 2” value (S180 murine sarcoma; 0.85 mmol/kg) was 0 and the “Mouse Number Grade 2” value (S180 murine sarcoma; [1]) was 0. The “Mouse Number Grade 3” value (S180 murine sarcoma; 0.60 mmol/kg) was 0, the “Mouse Number Grade 3” value (S180 murine sarcoma; 0.85 mmol/kg) was 0 and the “Mouse Number Grade 3” value (S180 murine sarcoma; [1]) was 0. For the same molecule, the “Mouse Number Grade 4” value (S180 murine sarcoma; 0.60 mmol/kg) was 0, the “Mouse Number Grade 4” value (S180 murine sarcoma; 0.85 mmol/kg) was 0 and the “Mouse Number Grade 4” value (S180 murine sarcoma; [1]) was 0. For the same molecule, the “In vivo antitumor effect on S180 compared with parent compound (in words)” value (S180 murine sarcoma) was “significantly stronger than that of the parent compound”, the “Inhibitory effect on invasion and metastasis of S180 tumor tissues (in words)” value (S180 murine sarcoma) was “strong inhibitory effect” and the “Mortality(%)” value (mice) was 0%. The Deaths (mice) was 0, the “IR (%) of tumor growth” value (Murine hepatoma H22; 0.65 mmol/kg ig once a day 7 d) was 15.69% and the Carmine contents (Murine hepatoma H22; 0.65 mmol/kg ig once a day 7 d) was 4.63 ± 2.93. For the same molecule, the “VI (vascular index, mg carmine red per g tumor tissue)” value (Murine hepatoma H22; 0.65 mmol/kg ig once a day 7 d) was 4.42 ± 1.58 mg/g, the “IR (%) of tumor growth” value (Murine hepatoma H22; 1.00 mmol/kg ig once a day 7 d) was 49.63**^ΔΔ % and the Carmine contents (Murine hepatoma H22; 1.00 mmol/kg ig once a day 7 d) was 2.59 ± 1.68*^Δ. For the same molecule, the “VI (vascular index, mg carmine red per g tumor tissue)” value (Murine hepatoma H22; 1.00 mmol/kg ig once a day 7 d) was 3.89 ± 0.89 mg/g, the “IR (%) of tumor growth” value (Murine hepatoma H22; 1.35 mmol/kg ig once a day 7 d) was 50.37**^ΔΔ % and the Carmine contents (Murine hepatoma H22; 1.35 mmol/kg ig once a day 7 d) was 1.90 ± 1.39**^ΔΔ. The “VI (vascular index, mg carmine red per g tumor tissue)” value (Murine hepatoma H22; 1.35 mmol/kg ig once a day 7 d) was 3.14 ± 1.69*^Δ mg/g, the “Inhibition against angiogenesis in H22 tumor (in words)” value (Murine hepatoma H22) was “significant inhibition” and the “Inhibition against the growth of mouse hepatoma H22 (in words)” value (Murine hepatoma H22) was “significant inhibition”.
With C=C1CCC2C(C)(COC(=O)c3cccnc3)C(OC(=O)c3cccnc3)CCC2(C)C1C=CC1=CC(=Cc2ccc(Cl)cc2)OC1=O (centres unmarked) [Compound 3, 15-p-chlorobenzylidene-14-deoxy-11,12-didehydro-3,19-dinicotinate andrographolide] the “IR (%) of S180 sarcoma growth” value (S180 murine sarcoma; 0.60 mmol/kg ig once a day 9 d) was 18.89 ± 3.68 %, the “IR (%) of S180 sarcoma growth” value (S180 murine sarcoma; 0.85 mmol/kg ig once a day 9 d) was 20.21 ± 4.37 % and the “IR (%) of S180 sarcoma growth” value (S180 murine sarcoma; 1.10 mmol/kg ig once a day 9 d) was 24.44 ± 6.30 %. For the same molecule, the “IR (%) of S180 sarcoma growth” value (S180 murine sarcoma; 1.35 mmol/kg ig once a day 9 d) was 31.21 ± 5.96**^Δ %, the “Average invasion and metastasis grade” value (S180 murine sarcoma; 0.60 mmol/kg) was 1.08 and the “Average invasion and metastasis grade” value (S180 murine sarcoma; 0.85 mmol/kg) was 1.25. For the same molecule, the “Average invasion and metastasis grade” value (S180 murine sarcoma; [1]) was 0.42, the “Mouse Number Grade 0” value (S180 murine sarcoma; 0.60 mmol/kg) was 4 and the “Mouse Number Grade 0” value (S180 murine sarcoma; 0.85 mmol/kg) was 5. The “Mouse Number Grade 0” value (S180 murine sarcoma; [1]) was 8, the “Mouse Number Grade 1” value (S180 murine sarcoma; 0.60 mmol/kg) was 5 and the “Mouse Number Grade 1” value (S180 murine sarcoma; 0.85 mmol/kg) was 2. For the same molecule, the “Mouse Number Grade 1” value (S180 murine sarcoma; [1]) was 3, the “Mouse Number Grade 2” value (S180 murine sarcoma; 0.60 mmol/kg) was 1 and the “Mouse Number Grade 2” value (S180 murine sarcoma; 0.85 mmol/kg) was 2. The “Mouse Number Grade 2” value (S180 murine sarcoma; [1]) was 1, the “Mouse Number Grade 3” value (S180 murine sarcoma; 0.60 mmol/kg) was 2 and the “Mouse Number Grade 3” value (S180 murine sarcoma; 0.85 mmol/kg) was 3. For the same molecule, the “Mouse Number Grade 3” value (S180 murine sarcoma; [1]) was 0, the “Mouse Number Grade 4” value (S180 murine sarcoma; 0.60 mmol/kg) was 0 and the “Mouse Number Grade 4” value (S180 murine sarcoma; 0.85 mmol/kg) was 0. The “Mouse Number Grade 4” value (S180 murine sarcoma; [1]) was 0, the “In vivo antitumor effect on S180 compared with parent compound (in words)” value (S180 murine sarcoma) was “significantly stronger than that of the parent compound” and the “Inhibitory effect on invasion and metastasis of S180 tumor tissues (in words)” value (S180 murine sarcoma) was “strong inhibitory effect”. For the same molecule, the “Mortality(%)” value (mice) was 0%, the Toxic symptoms observed (mice) was “No apparent toxic symptoms” and the Deaths (mice) was 0. The “IR (%) of tumor growth” value (Murine hepatoma H22; 0.65 mmol/kg ig once a day 7 d) was 37.89* %, the Carmine contents (Murine hepatoma H22; 0.65 mmol/kg ig once a day 7 d) was 2.26 ± 1.97*^Δ and the “VI (vascular index, mg carmine red per g tumor tissue)” value (Murine hepatoma H22; 0.65 mmol/kg ig once a day 7 d) was 3.60 ± 1.86*^Δ mg/g. The “IR (%) of tumor growth” value (Murine hepatoma H22; 1.00 mmol/kg ig once a day 7 d) was 41.26*^ΔΔ %, the Carmine contents (Murine hepatoma H22; 1.00 mmol/kg ig once a day 7 d) was 1.88 ± 1.26**^ΔΔ and the “VI (vascular index, mg carmine red per g tumor tissue)” value (Murine hepatoma H22; 1.00 mmol/kg ig once a day 7 d) was 3.30 ± 1.43*^Δ mg/g. For the same molecule, the “IR (%) of tumor growth” value (Murine hepatoma H22; 1.35 mmol/kg ig once a day 7 d) was 49.27**^ΔΔ %, the Carmine contents (Murine hepatoma H22; 1.35 mmol/kg ig once a day 7 d) was 2.14 ± 1.42*^Δ and the “VI (vascular index, mg carmine red per g tumor tissue)” value (Murine hepatoma H22; 1.35 mmol/kg ig once a day 7 d) was 3.88 ± 1.40 mg/g. For the same molecule, the “Inhibition against angiogenesis in H22 tumor (in words)” value (Murine hepatoma H22) was “significant inhibition” and the “Inhibition against the growth of mouse hepatoma H22 (in words)” value (Murine hepatoma H22) was “significant inhibition”.
